{"source": "patent US12285408B2", "about": "“Methods and compositions for the treatment of snake bite” (priority 2021, dated 2025)", "format_in_all_cases": "in vivo, CD-1 mice", "key": {"Echis ocellatus venom": {"tested_on": "Echis ocellatus venom", "experiment": "Murine preincubation (co-incubation) model of venom lethality, intravenous, with TAT ELISA", "settings": "45 μg venom (2.5×LD50) preincubated 30 min at 37° C. with 60 μg of each drug, i.v., 6 h monitoring, n=5", "method": "The intravenous median lethal dose (venom LD50) for E. ocellatus (Nigeria) of 17.85 μg per mouse was previously determined. Mice were challenged with 45 μg of E. ocellatus venom (2.5×the intravenous LD50 dose) in a refined version of the World Health Organization-recommended antivenom efficacy experiments. Groups of five male 18-22 g CD-1 mice (Charles River, UK) received experimental doses that consisted of either (a) venom only (2.5×LD50 dose), (b) venom and drug (60 μg) or (c) drug only. All experimental doses were prepared to a volume of 200 μl in PBS and incubated at 37° C. for 30 mins prior to their intravenous injection via the tail vein. Animals were monitored for 6 hours and euthanized upon observation of humane endpoints (seizure, pulmonary distress, paralysis, hemorrhage). Deaths, time of death, and survivors were recorded; where “deaths/time of death” represents the implementation of euthanasia based on the defined humane endpoints.\n(§1) The same murine preincubation model was used to assess the efficacy of distinct toxin family inhibiting drugs in comparison with a drug combination. […] All experimental doses were prepared to a volume of 200 μl in PBS and incubated at 37° C. for 30 min prior to their intravenous injection via the tail vein. Animals were monitored for 6 h, and euthanized via rising concentrations of CO2 upon observation of previously defined humane end points that are predicators of lethality (e.g., seizure, pulmonary distress, paralysis, hemorrhage). Deaths, time of death, and survivors were recorded; where death/time of death represents the implementation of euthanasia based on defined humane end points.\nStrong drug hits, those defined as inhibiting >80% of the venom activity in the previously described in vitro metalloproteinase assay (FIG. 1), were next progressed into murine preclinical efficacy studies, to assess their ability to prevent venom-induced lethality in vivo. We used an established in vivo model of envenoming to test the efficacy of the seven snake venom metalloproteinase toxin inhibitors identified. This model consisted of the preincubation of the test drug with venom, followed by intravenous injection of the mixture into groups of five male CD-1 mice (18-20 g) via the tail vein followed by 6 hour monitoring, and is based on principles laid out in the gold standard method of preclinical efficacy recommended by the World Health Organization.\nWe used an established in vivo model of envenoming^41,42 to test the efficacy of small molecule toxin inhibitors. […]"}, "A. contortrix venom": {"tested_on": "A. contortrix venom", "experiment": "Murine preincubation model of venom lethality, North American pit viper venom", "settings": "2.5×LD50 A. contortrix venom preincubated with 60 μg of each drug, i.v., 6 h, n=5", "method": "as §1, with “Thereafter, the” for “The”, “animal” for “preincubation”, “explore” for “assess”, “the same snake venom metalloproteinase and phospholipase A2” for “distinct toxin family”, “as solo and combination treatments against North American pit viper venoms. The intravenous median lethal dose (venom LD50) for C. atrox, C. scutulatus, S. miliariius and A. contortrix venoms was previously determined (3.79 μg, 0.17 μg, 4.87 μg and 4.99 μg per mouse, respectively).” for “in comparison with a drug combination.”, “As described above, all” for “All”\n(§2) These snake species were selected for their taxonomic diversity and clinical importance in the USA, namely: 1) Crotalus atrox (Western diamondback), which is found across the southwest USA and into Mexico and is thought to be the most common cause of snakebite envenoming in USA, 2) Crotalus scutulatus (Mojave rattlesnake), which is also found across the southwest USA and into Mexico, 3) Sistrurus miliarius (pygmy rattlesnake), which is found in the South-East USA, and 4) Agkistrodon contortrix (Eastern copperhead), which is found in central and eastern USA. […] The drug treatments consisted of: DMPS, marimastat, or varespladib as solo drug treatments, or a DMPS and varespladib combination, or a marimastat and varespladib combination."}, "C. scutulatus venom": {"tested_on": "C. scutulatus venom", "experiment": "Murine preincubation model of venom lethality, North American pit viper venom", "settings": "2.5×LD50 C. scutulatus venom preincubated with 60 μg of each drug, i.v., 6 h, n=5", "method": "as §1, with “Thereafter, the” for “The”, “animal” for “preincubation”, “explore” for “assess”, “the same snake venom metalloproteinase and phospholipase A2” for “distinct toxin family”, “as solo and combination treatments against North American pit viper venoms. The intravenous median lethal dose (venom LD50) for C. atrox, C. scutulatus, S. miliariius and A. contortrix venoms was previously determined (3.79 μg, 0.17 μg, 4.87 μg and 4.99 μg per mouse, respectively).” for “in comparison with a drug combination.”, “As described above, all” for “All”\nas §2"}, "C. atrox venom": {"tested_on": "C. atrox venom", "experiment": "Murine preincubation model of venom lethality, North American pit viper venom", "settings": "2.5×LD50 C. atrox venom preincubated with 60 μg of each drug, i.v., 6 h, n=5", "method": "as §1, with “Thereafter, the” for “The”, “animal” for “preincubation”, “explore” for “assess”, “the same snake venom metalloproteinase and phospholipase A2” for “distinct toxin family”, “as solo and combination treatments against North American pit viper venoms. The intravenous median lethal dose (venom LD50) for C. atrox, C. scutulatus, S. miliariius and A. contortrix venoms was previously determined (3.79 μg, 0.17 μg, 4.87 μg and 4.99 μg per mouse, respectively).” for “in comparison with a drug combination.”, “As described above, all” for “All”\nas §2"}}, "note": "Entries after “also recorded” stand apart in the source; their conditions may differ."}
{"smiles": "O=S(=O)(O)CC(S)CS", "note": "(stereo not drawn) [DMPS, 2,3-dimercapto-1-propanesulfonic acid]", "values": [{"measurement": "survival / protection against venom-induced lethality", "setting": "Echis ocellatus venom", "result": "all animals surviving; also recorded: complete protection"}, {"measurement": "protection against venom lethality", "setting": "A. contortrix venom", "result": "Neither drug provided protection"}, {"measurement": "protection against venom lethality", "setting": "C. scutulatus venom", "result": "some limited protection"}, {"measurement": "protection against venom lethality", "setting": "C. atrox venom", "result": "Neither drug provided protection"}]}
{"smiles": "CNC(=O)[C@@H](NC(=O)[C@H](CC(C)C)[C@H](O)C(=O)NO)C(C)(C)C", "note": "[marimastat]", "values": [{"measurement": "survival / protection against venom-induced lethality", "setting": "Echis ocellatus venom", "result": "only one death; also recorded: remaining four survived"}, {"measurement": "protection against venom lethality", "setting": "A. contortrix venom", "result": "Neither drug provided protection"}, {"measurement": "protection against venom lethality", "setting": "C. scutulatus venom", "result": "some limited protection"}, {"measurement": "protection against venom lethality", "setting": "C. atrox venom", "result": "Neither drug provided protection"}]}
{"smiles": "CCc1c(C(=O)C(N)=O)c2c(OCC(=O)O)cccc2n1Cc1ccccc1", "note": "[varespladib]", "values": [{"measurement": "survival / protection against venom-induced lethality", "setting": "Echis ocellatus venom", "result": "failed to prevent lethality over the full experimental time course"}, {"measurement": "protection against venom lethality", "setting": "A. contortrix venom", "result": "survived for longer periods of time than the venom only controls"}, {"measurement": "protection against venom lethality", "setting": "C. scutulatus venom", "result": "survive the duration of the experiment"}, {"measurement": "protection against venom lethality", "setting": "C. atrox venom", "result": "survived for longer periods of time than the venom only controls"}]}
